For assay [1], the system named is A. baumannii. The assay can be described thus: MIC, broth microdilution, CDC/FDA Antibiotic Resistance Isolate Bank (Example 7, Tables 9, 13, 14). The format is cell-based, Acinetobacter baumannii. (In broth dilution the organism is exposed to a series of concentrations in liquid medium.)
Assay [2] has as its system Enterobacterales. The assay can be described thus: MIC, broth microdilution, CDC/FDA Antibiotic Resistance Isolate Bank (Example 7, Tables 8, 11, 12). It is filed as cell-based.

Converted amounts (≈) assume the structure as drawn.

The MIC is the lowest concentration that inhibits growth of the organism. Higher therefore signals a need for much substance. Turning to `C[C@H]1COc2c(N3CCN(C)CC3)c(F)cc3c(=O)c(C(=O)O)cn1c23` [Levotloxacin], the minimal inhibitory concentration (MIC) stood at 4 µg/mL (≈ 11.1 µM) in assay [1] (A. baumannii KUB No. 5567, AR Bank #70, OXA-58, OXA-100); 32 µg/mL (≈ 88.6 µM) in assay [1] (A. baumannii KUB No. 5575, AR Bank #78, OXA-71); 8 µg/mL (≈ 22.1 µM) in assay [1] (A. baumannii KUB No. 5580, AR Bank #83, OXA-23, OXA-69, NDM-1); 8 µg/mL (≈ 22.1 µM) in assay [1] (A. baumannii KUB No. 5585, AR Bank #88, OXA-64, NDM-1); 16 µg/mL (≈ 44.3 µM) in assay [1] (A. baumannii KUB No. 5598, AR Bank #101, OXA-24, OXA-65); 8 µg/mL (≈ 22.1 µM) in assay [1] (A. baumannii KUB No. 5599, AR Bank #102, OXA-66). Moreover, the minimum inhibitory concentration (MIC) in assay [1] (A. baumannii KUB No. 5706, AR Bank #273, OXA-23, OXA-66) amounted to 64 µg/mL (≈ 177 µM); in assay [1] (A. baumannii KUB No. 5707, AR Bank #274, OXA-66, OXA-72) it was 16 µg/mL (≈ 44.3 µM); in assay [1] (A. baumannii KUB No. 5708, AR Bank #275, OXA-23, OXA-66) it was 8 µg/mL (≈ 22.1 µM); in assay [1] (A. baumannii KUB No. 5709, AR Bank #276, no carbapenemase genes (-)) it was 16 µg/mL (≈ 44.3 µM); in assay [1] (A. baumannii KUB No. 5710, AR Bank #277, OXA-24, OXA-65), 16 µg/mL (≈ 44.3 µM); in assay [1] (A. baumannii KUB No. 5711, AR Bank #278, OXA-23, OXA-66), 8 µg/mL (≈ 22.1 µM). The MIC in assay [1] (A. baumannii KUB No. 5712, AR Bank #279, OXA-23, OXA-66) was 8 µg/mL (≈ 22.1 µM); in assay [1] (A. baumannii KUB No. 5713, AR Bank #280, OXA-66), 16 µg/mL (≈ 44.3 µM); in assay [1] (A. baumannii KUB No. 5714, AR Bank #281, OXA-82), 8 µg/mL (≈ 22.1 µM); in assay [1] (A. baumannii KUB No. 5715, AR Bank #282, OXA-23, OXA-66), 8 µg/mL (≈ 22.1 µM); in assay [1] (A. baumannii KUB No. 5716, AR Bank #283, OXA-23, OXA-66) it was 16 µg/mL (≈ 44.3 µM); in assay [1] (A. baumannii KUB No. 5717, AR Bank #284, OXA-24, OXA-65), 16 µg/mL (≈ 44.3 µM). The molecule also showed an MIC in assay [1] (A. baumannii KUB No. 5718, AR Bank #285, OXA-24, OXA-65) of 64 µg/mL (≈ 177 µM).
For `C[C@H]1COc2c(N3CCN(C)CC3)c(F)cc3c(=O)c(C(=O)O)cn1c23` [Levoflexacin], the MIC in assay [2] (Enterobacter aerogenes, KUB No. 5559, AR Bank # 62) stood at 2 µg/mL (≈ 5.53 µM); in assay [2] (Enterobacter aerogenes, KUB No. 5571, AR Bank # 74), 0.12 µg/mL (≈ 0.332 µM); in assay [2] (Enterobacter cloacae, KUB No. 5562, AR Bank # 65), 0.12 µg/mL (≈ 0.332 µM); in assay [2] (Enterobacter cloacae, KUB No. 5569, AR Bank # 72) it was 0.5 µg/mL (≈ 1.38 µM); in assay [2] (Enterobacter cloacae, KUB No. 5570, AR Bank # 73), 0.25 µg/mL (≈ 0.692 µM); in assay [2] (Enterobacter cloacae, KUB No. 5590, AR Bank # 93), 4 µg/mL (≈ 11.1 µM). The MIC in assay [2] (Escherichia coli, KUB No. 5558, AR Bank # 61) turned out to be 0.12 µg/mL (≈ 0.332 µM); in assay [2] (Escherichia coli, KUB No. 5564, AR Bank # 67) it was 32 µg/mL (≈ 88.6 µM); in assay [2] (Escherichia coli, KUB No. 5566, AR Bank # 69) it was 0.12 µg/mL (≈ 0.332 µM); in assay [2] (Escherichia coli, KUB No. 5574, AR Bank # 77), 0.06 µg/mL (≈ 0.166 µM); in assay [2] (Escherichia coli, KUB No. 5578, AR Bank # 81) it was 32 µg/mL (≈ 88.6 µM); in assay [2] (Escherichia coli, KUB No. 5581, AR Bank # 84), 64 µg/mL (≈ 177 µM). In addition, the MIC turned out to be 32 µg/mL (≈ 88.6 µM) in assay [2] (Escherichia coli, KUB No. 5582, AR Bank # 85); 8 µg/mL (≈ 22.1 µM) in assay [2] (Escherichia coli, KUB No. 5583, AR Bank # 86); 0.12 µg/mL (≈ 0.332 µM) in assay [2] (Escherichia coli, KUB No. 5586, AR Bank # 89); 0.5 µg/mL (≈ 1.38 µM) in assay [2] (Klebsiella oxytoca, KUB No. 5568, AR Bank # 71); 32 µg/mL (≈ 88.6 µM) in assay [2] (Klebsiella ozaenae, KUB No. 5593, AR Bank # 96); 64 µg/mL (≈ 177 µM) in assay [2] (Klebsiella pneumoniae, KUB No. 5563, AR Bank # 66). Further, the MIC in assay [2] (Klebsiella pneumoniae, KUB No. 5565, AR Bank # 68) was 64 µg/mL (≈ 177 µM); in assay [2] (Klebsiella pneumoniae, KUB No. 5572, AR Bank # 75), above 64 µg/mL; in assay [2] (Klebsiella pneumoniae, KUB No. 5573, AR Bank # 76), 1 µg/mL (≈ 2.77 µM); in assay [2] (Klebsiella pneumoniae, KUB No. 5576, AR Bank # 79), 64 µg/mL (≈ 177 µM); in assay [2] (Klebsiella pneumoniae, KUB No. 5577, AR Bank # 80), 0.12 µg/mL (≈ 0.332 µM); in assay [2] (Klebsiella pneumoniae, KUB No. 5584, AR Bank # 87), above 64 µg/mL. Further, the MIC in assay [2] (Klebsiella pneumoniae, KUB No. 5594, AR Bank # 97) is above 64 µg/mL; in assay [2] (Klebsiella pneumoniae, KUB No. 5595, AR Bank # 98), 64 µg/mL (≈ 177 µM); in assay [2] (Providencia rettgeri, KUB No. 5579, AR Bank # 82) it was 0.25 µg/mL (≈ 0.692 µM); in assay [2] (Serratia marcescens, KUB No. 5588, AR Bank # 91), 0.25 µg/mL (≈ 0.692 µM).

Values taken from patent EP4635500A1, “THERAPEUTIC AGENT FOR BACTERIAL INFECTION” (Sumitomo Pharma Co., Ltd., priority 2022, dated 2024).
